Measurements taken from the supplement of paper PMC13380429.

Legend:
Caco-2 [1] = experiment: drug sensitivity score (DSS) for viability; higher = more toxic; extreme values may be limits of the assay; conditions: 72 h
U2OS [2] = experiment: as above; conditions: 72 h
HepG2 [3] = experiment: as above; conditions: 72 h
Calu-3 [4] = experiment: as above; conditions: 72 h
Vero E6 [5] = experiment: as above; conditions: 72 h
Caco-2 [6] = experiment: relative viability EC50 (midpoint between 100% and the lowest measured viability); higher = less toxic; conditions: 72 h
U2OS [7] = experiment: as above; conditions: 72 h
HepG2 [8] = experiment: as above; conditions: 72 h
Calu-3 [9] = experiment: as above; conditions: 72 h
Vero E6 [10] = experiment: as above; conditions: 72 h
Caco-2 [11] = experiment: cell viability relative to DMSO; higher = less toxic; conditions: 72 h
U2OS [12] = experiment: as above; conditions: 72 h
HepG2 [13] = experiment: as above; conditions: 72 h
Calu-3 [14] = experiment: as above; conditions: 72 h
Vero E6 [15] = experiment: as above; conditions: 72 h
[16] = tested on: A549-ACE2 infected with SARS-CoV-2; experiment: SARS-CoV-2 infection rate relative to DMSO; higher = more infection; conditions: 24 h
[17] = tested on: A549-ACE2 infected with SARS-CoV-2; experiment: cell count relative to DMSO; higher = less toxic; conditions: 24 h
[18] = tested on: A549-ACE2 infected with SARS-CoV-2; experiment: morphology score (similarity to uninfected cells); higher = more like uninfected cells; conditions: 24 h
A549-ACE2 = experiment: drug-induced phospholipidosis relative to tamoxifen; higher = more phospholipidosis

Cc1oc(=O)oc1COC(=O)C1=C([C@H]2CCCO2)S[C@@H]2[C@@H]([C@@H](C)O)C(=O)N12 [faropenem-medoxomil]
Conditions	drug sensitivity score	relative viability EC50 [µM]
Caco-2 [1]	0	–
Caco-2 [6]	–	> 10
Calu-3 [4]	0	–
Calu-3 [9]	–	> 10
HepG2 [3]	0	–
HepG2 [8]	–	> 10
U2OS [2]	0	–
U2OS [7]	–	> 10
Vero E6 [5]	0	–
Vero E6 [10]	–	> 10

cell viability [%]
Conditions	Caco-2 [11]	Calu-3 [14]	HepG2 [13]	U2OS [12]	Vero E6 [15]
1 nM	95.6	99.3	103	98.8	94.7
10 nM	93.4	94.7	99.2	96.3	94.1
100 nM	96.8	102	98.1	98.3	97.6
1000 nM	93.2	93	95.1	98.2	92.4
10000 nM	97.9	98.8	100	99.9	97.9

NC(=O)c1noc([C@H](CCCC2CCCCC2)CC(=O)NO)n1
Conditions	drug sensitivity score	relative viability EC50 [µM]
Caco-2 [1]	1.2	–
Caco-2 [6]	–	> 10
Calu-3 [4]	0	–
Calu-3 [9]	–	> 10
HepG2 [3]	2.2	–
U2OS [2]	0.3	–
U2OS [7]	–	> 10
Vero E6 [5]	0	–
Vero E6 [10]	–	> 10

Conditions	SARS-CoV-2 infection rate, [16] [%]	cell count, [17] [%]	cell viability, Caco-2 [11] [%]	cell viability, Calu-3 [14] [%]	cell viability, HepG2 [13] [%]	cell viability, U2OS [12] [%]	cell viability, Vero E6 [15] [%]	morphology score, [18]
1 nM	–	–	97.2	106	102	96.4	95.2	–
10 nM	–	–	93	102	108	101	90.9	–
100 nM	–	–	96.9	93.8	109	101	93.1	–
0.3 µM	102	102	–	–	–	–	–	-0.06
1000 nM	–	–	88	110	89.6	97.4	91.4	–
3 µM	98	100	–	–	–	–	–	0
10 µM	89	102	–	–	–	–	–	0.38
10000 nM	–	–	79.6	98.7	74.8	86.7	97	–
30 µM	95	101	–	–	–	–	–	0.25

drug-induced phospholipidosis [%], A549-ACE2
Conditions	0.3 µM	0.833333 µM	3.33333 µM	6.66667 µM	10 µM	30 µM
24 h	4.23	6.27	14.7	16.7	18.4	23.6
48 h	4.52	5.1	16.8	23.1	24.9	32.6
72 h	5.18	1.64	8.76	19.5	21	–

COc1cc2ncnc(Nc3cccc(Cl)c3)c2cc1OC [tyrphostin-AG-1478]
Conditions	drug sensitivity score	relative viability EC50 [µM]
Caco-2 [1]	3.1	–
Calu-3 [4]	11.1	–
Calu-3 [9]	–	0.422
HepG2 [3]	1.5	–
U2OS [2]	0.1	–
U2OS [7]	–	> 10
Vero E6 [5]	8.2	–
Vero E6 [10]	–	0.335

Conditions	SARS-CoV-2 infection rate, [16] [%]	cell count, [17] [%]	cell viability, Caco-2 [11] [%]	cell viability, Calu-3 [14] [%]	cell viability, HepG2 [13] [%]	cell viability, U2OS [12] [%]	cell viability, Vero E6 [15] [%]	morphology score, [18]
1 nM	–	–	102	107	99.7	103	98.6	–
10 nM	–	–	88.6	103	85.3	96.1	100	–
100 nM	–	–	97.4	93.6	101	96.2	84.9	–
0.3 µM	101	97	–	–	–	–	–	-0.07
1000 nM	–	–	80.5	45.1	100	92.7	64.3	–
3 µM	91	102	–	–	–	–	–	0.32
10 µM	57	106	–	–	–	–	–	0.52
10000 nM	–	–	72.4	31.3	67.3	87.7	48.2	–
30 µM	19	69	–	–	–	–	–	0.35

drug-induced phospholipidosis [%], A549-ACE2
Conditions	0.3 µM	0.833333 µM	3.33333 µM	6.66667 µM	10 µM	30 µM
24 h	3.78	0.06	-0.97	3.23	3.9	3.18
48 h	3.39	-0.45	-0.89	-0.86	1.84	-2.59
72 h	0.893	-2.52	-3.56	-0.746	0.696	-0.954

O=C(O)c1ccccc1C(=O)Nc1ccc(-c2ccccc2)cc1 [kartogenin]
Conditions	drug sensitivity score	relative viability EC50 [µM]
Caco-2 [1]	0	–
Caco-2 [6]	–	> 10
Calu-3 [4]	0	–
Calu-3 [9]	–	> 10
HepG2 [3]	0	–
HepG2 [8]	–	> 10
U2OS [2]	0	–
U2OS [7]	–	> 10
Vero E6 [5]	0	–
Vero E6 [10]	–	> 10

cell viability [%]
Conditions	Caco-2 [11]	Calu-3 [14]	HepG2 [13]	U2OS [12]	Vero E6 [15]
1 nM	99.2	98.2	98.4	103	103
10 nM	90.6	101	98.4	104	99
100 nM	89.7	105	92.7	100	105
1000 nM	94.2	102	97.3	98.6	97.7
10000 nM	93.7	103	106	100	98.1

O=P(O)(O)CN(CCN(CP(=O)(O)O)CP(=O)(O)O)CP(=O)(O)O [EDTMP]
Conditions	drug sensitivity score	relative viability EC50 [µM]
Caco-2 [1]	0	–
Caco-2 [6]	–	> 10
Calu-3 [4]	0	–
Calu-3 [9]	–	> 10
HepG2 [3]	0	–
HepG2 [8]	–	> 10
U2OS [2]	0	–
U2OS [7]	–	> 10
Vero E6 [5]	0	–
Vero E6 [10]	–	> 10

cell viability [%]
Conditions	Caco-2 [11]	Calu-3 [14]	HepG2 [13]	U2OS [12]	Vero E6 [15]
1 nM	98.2	105	88.5	99.8	96.1
10 nM	95.5	100	96.3	95.9	99.8
100 nM	95.4	96	96.5	102	102
1000 nM	105	97.1	92.2	97.8	98.2
10000 nM	104	99	106	104	91

COc1cccc2c1C(=O)c1c(O)c3c(c(O)c1C2=O)C[C@@](O)(/C(CO)=N/NC(=O)CCCCCN1C(=O)C=CC1=O)C[C@@H]3O[C@H]1C[C@H](N)[C@H](O)[C@H](C)O1 [aldoxorubicin]
Conditions	drug sensitivity score	relative viability EC50 [µM]
Caco-2 [1]	11.7	–
Caco-2 [6]	–	0.367
Calu-3 [4]	13.2	–
Calu-3 [9]	–	0.233
HepG2 [3]	21.6	–
HepG2 [8]	–	0.102
U2OS [2]	14.2	–
U2OS [7]	–	0.513
Vero E6 [5]	5.8	–
Vero E6 [10]	–	1.38

cell viability [%]
Conditions	Caco-2 [11]	Calu-3 [14]	HepG2 [13]	U2OS [12]	Vero E6 [15]
1 nM	104	93.4	97.4	102	105
10 nM	102	98.1	94	98.4	101
100 nM	93.2	75.7	50.3	94.8	103
1000 nM	41.4	45.1	20.3	28.5	82
10000 nM	30.9	28	5.8	6	41.9
